pIC50: −log10 of the molar value. Active and inactive are the calls of the source. The calls are words filed in the database; no cut-off is given here.
How the values were obtained:
[1] = molecular target: Transforming growth factor beta-1 proprotein/Mothers against decapentaplegic homolog 3 (Mus musculus) (UniProt P04202+Q8BUN5); test: Inhibition of TGF-beta1/Smad3 signalling in TGF-beta1 treated mouse NIH3T3 cells transfected with (CAGA)12-Lux reporter gene assessed as suppressive ratio at 10 uM incubated for 18 hrs by luciferase based analysis relative to control; assay type: cell-based; parameters: scale not given: the % may be the effect or the level left
[2] = system: Staphylococcus aureus; test: Antibacterial activity against Staphylococcus aureus assessed as bacterial growth inhibition incubated for 24 hrs; assay type: functional
[3] = system: Escherichia coli; test: Antibacterial activity against Escherichia coli assessed as bacterial growth inhibition incubated for 24 hrs; assay type: functional
[4] = system: Bacillus subtilis; test: Antibacterial activity against Bacillus subtilis assessed as bacterial growth inhibition incubated for 24 hrs; assay type: functional
[5] = Inhibition of TGF-beta1 induced cell proliferation in mouse MLg cells measured after 24 hrs by MTT assay; assay type: functional, cell-based
[6] = molecular target: Transforming growth factor beta-1 proprotein/Mothers against decapentaplegic homolog 3 (Mus musculus, UniProt P04202+Q8BUN5); test: Inhibition of TGF-beta1/Smad3 signalling in TGF-beta1 treated mouse NIH3T3 cells transfected with (CAGA)12-Lux reporter gene incubated for 18 hrs by luciferase based analysis; assay type: cell-based
[7] = Cmax in Sprague-Dawley rat at 10 mg/kg, iv measured for 12 hrs by LC-MS/MS analysis; assay type: ADME, organism-based; parameters: dose 10 mg/kg, time 12 hrs, route iv; conditions: in vivo
[8] = AUC (0 to t) in Sprague-Dawley rat at 10 mg/kg, iv measured for 12 hrs by LC-MS/MS analysis; assay type: ADME, organism-based; parameters: dose 10 mg/kg, time 12 hrs, route iv; conditions: in vivo
[9] = Tmax in Sprague-Dawley rat at 10 mg/kg, iv measured for 12 hrs by LC-MS/MS analysis; assay type: ADME, organism-based; conditions: in vivo
[10] = Half life in Sprague-Dawley rat at 10 mg/kg, iv measured for 12 hrs by LC-MS/MS analysis; assay type: ADME, organism-based; conditions: in vivo
[11] = Clearance in Sprague-Dawley rat at 10 mg/kg, iv measured for 12 hrs by LC-MS/MS analysis; assay type: ADME, organism-based; conditions: in vivo
[12] = Cmax in Sprague-Dawley rat at 100 mg/kg, po measured for 18 hrs by LC-MS/MS analysis; assay type: ADME, organism-based; parameters: dose 100 mg/kg, time 18 hrs, route po; conditions: in vivo
[13] = AUC (0 to t) in Sprague-Dawley rat at 100 mg/kg, po measured for 18 hrs by LC-MS/MS analysis; assay type: ADME, organism-based; parameters: dose 100 mg/kg, time 18 hrs, route po; conditions: in vivo
[14] = Tmax in Sprague-Dawley rat at 100 mg/kg, po measured for 18 hrs by LC-MS/MS analysis; assay type: ADME, organism-based; conditions: in vivo
[15] = Half life in Sprague-Dawley rat at 100 mg/kg, po measured for 18 hrs by LC-MS/MS analysis; assay type: ADME, organism-based; conditions: in vivo
[16] = Clearance in Sprague-Dawley rat at 100 mg/kg, po measured for 18 hrs by LC-MS/MS analysis; assay type: ADME, organism-based; conditions: in vivo
[17] = Oral bioavailability in Sprague-Dawley rat at 100 mg/kg measured for 18 hrs by LC-MS/MS analysis; assay type: ADME, organism-based; conditions: in vivo
[18] = Toxicity in C57BL/6 mouse assessed as animal survival at 1000 mg/kg, IG administered as single dose; assay type: organism-based; conditions: in vivo, po
[19] = Toxicity in C57BL/6 mouse assessed as animal survival at 500 mg/kg, IG administered once every day for 7 days; assay type: organism-based; conditions: in vivo, po, 168 h, time 7 day
[20] = Toxicity in C57BL/6 mouse assessed as animal survival at 500 mg/kg, po administered once every day for 30 days; assay type: organism-based; conditions: in vivo, 720 h, time 30 day
[21] = Toxicity in C57BL/6 mouse assessed as toxic symptoms at 500 mg/kg, po administered once every day for 30 days; assay type: organism-based; conditions: in vivo, 720 h, time 30 day
[22] = system: Mus musculus; test: Antifibrotic activity against BLM-induced pulmonary fibrosis in C57BL/6 mouse model assessed as improvement in pulmonary alveolar structure damage at 100 to 200 mg/kg, po administered once daily starting from day 7 post BLM treatment and measured on day 14 by H and E staining based analysis; assay type: functional, organism-based; conditions: dose 100-200 mg/kg, time 14.0 day
[23] = system: Mus musculus; test: Antifibrotic activity against BLM-induced pulmonary fibrosis in C57BL/6 mouse model assessed as improvement in forced vital capacity at 200 mg/kg, po administered once daily starting from day 7 post BLM treatment and measured on day 14 by plethysmography chamber based pulmonary function analysis; assay type: functional; conditions: time 14 day
[24] = system: Mus musculus; test: Antifibrotic activity against BLM-induced pulmonary fibrosis in C57BL/6 mouse model assessed as improvement in dynamic compliance at 200 mg/kg, po administered once daily starting from day 7 post BLM treatment and measured on day 14 by plethysmography chamber based pulmonary function analysis; assay type: functional; conditions: time 14 day
[25] = system: Mus musculus; test: Antifibrotic activity against BLM-induced pulmonary fibrosis in C57BL/6 mouse model assessed as improvement in inspiratory resistance at 200 mg/kg, po administered once daily starting from day 7 post BLM treatment and measured on day 14 by plethysmography chamber based pulmonary function analysis; assay type: functional; conditions: time 14 day
[26] = system: Mus musculus; test: Antifibrotic activity against BLM-induced pulmonary fibrosis in C57BL/6 mouse model assessed as improvement in expiratory resistance at 200 mg/kg, po administered once daily starting from day 7 post BLM treatment and measured on day 14 by plethysmography chamber based pulmonary function analysis; assay type: functional, organism-based; conditions: time 14.0 day
[27] = system: Mus musculus; test: (§1) Antifibrotic activity against BLM-induced pulmonary fibrosis in C57BL/6 mouse model assessed as reduction in fibrosis region at 200 mg/kg, po administered once daily starting from day 7 post BLM treatment and measured on day 14 by hematoxylin-eosin and Masson trichrome staining based analysis relative to control; assay type: functional, organism-based; conditions: time 14.0 day
[28] = system: Mus musculus; test: as §1, with “100” for “200”; assay type: functional, organism-based; conditions: time 14.0 day
[29] = system: Mus musculus; test: Antifibrotic activity against BLM-induced pulmonary fibrosis in C57BL/6 mouse model assessed as reduction in collagen content in lungs at 100 to 200 mg/kg, po administered once daily starting from day 7 post BLM treatment and measured on day 14 by hydroxyproline method; assay type: functional, organism-based; conditions: dose 100-200 mg/kg, time 14.0 day
[30] = system: Mus musculus; test: Antifibrotic activity against BLM-induced pulmonary fibrosis in C57BL/6 mouse model assessed as reduction in extracellular matrix generation at 200 mg/kg, po administered once daily starting from day 7 post BLM treatment and measured on day 14 by hydroxyproline method; assay type: functional, organism-based; conditions: time 14.0 day
[31] = system: Pulmonary fibroblast; test: Inhibition of TGF-beta1 induced cell stimulation in mouse pulmonary fibroblast cells assessed as reduction in alpha-SMA protein expression at 10 to 40 uM incubated for 24 hrs by Western blot analysis; assay type: functional, cell-based; conditions: dose 10-40 µM
[32] = system: Pulmonary fibroblast; test: Inhibition of TGF-beta1 induced extracellular matrix development in mouse pulmonary fibroblast cells assessed as reduction in alpha-SMA mRNA expression at 10 to 40 uM incubated for 24 hrs by RT-PCR analysis; assay type: functional, cell-based; conditions: dose 10-40 µM
[33] = molecular target: Mothers against decapentaplegic homolog 3 (Mus musculus) (UniProt Q8BUN5); test: Inhibition of TGF-beta1 induced Smad3 phosphorylation in mouse pulmonary fibroblast cells at 10 to 40 uM incubated for 0.5 hrs by Western blot analysis; assay type: cell-based; conditions: dose 10-40 µM
Mothers against decapentaplegic homolog 3 (Mus musculus), sequence (Q8BUN5 whole entry, looked up): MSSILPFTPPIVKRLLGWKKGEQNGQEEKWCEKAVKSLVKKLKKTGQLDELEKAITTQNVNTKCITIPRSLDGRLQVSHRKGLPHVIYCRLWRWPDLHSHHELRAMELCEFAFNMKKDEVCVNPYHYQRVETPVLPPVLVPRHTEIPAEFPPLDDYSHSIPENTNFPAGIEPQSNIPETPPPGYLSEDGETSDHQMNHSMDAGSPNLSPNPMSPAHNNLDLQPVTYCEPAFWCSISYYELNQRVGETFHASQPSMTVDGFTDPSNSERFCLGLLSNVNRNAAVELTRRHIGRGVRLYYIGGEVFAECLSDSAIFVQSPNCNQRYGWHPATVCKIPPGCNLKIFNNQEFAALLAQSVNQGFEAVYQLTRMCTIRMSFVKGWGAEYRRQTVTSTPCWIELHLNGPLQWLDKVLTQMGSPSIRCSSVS

Transforming growth factor beta-1 proprotein/Mothers against decapentaplegic homolog 3 (Mus musculus), sequence (P04202 279-390 limits assumed): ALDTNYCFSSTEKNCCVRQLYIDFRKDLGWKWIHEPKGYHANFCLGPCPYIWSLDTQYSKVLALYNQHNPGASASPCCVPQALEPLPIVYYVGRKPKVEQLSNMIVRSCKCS
Transforming growth factor beta-1 proprotein/Mothers against decapentaplegic homolog 3 (Mus musculus), sequence (Q8BUN5 2-425 partner limits assumed): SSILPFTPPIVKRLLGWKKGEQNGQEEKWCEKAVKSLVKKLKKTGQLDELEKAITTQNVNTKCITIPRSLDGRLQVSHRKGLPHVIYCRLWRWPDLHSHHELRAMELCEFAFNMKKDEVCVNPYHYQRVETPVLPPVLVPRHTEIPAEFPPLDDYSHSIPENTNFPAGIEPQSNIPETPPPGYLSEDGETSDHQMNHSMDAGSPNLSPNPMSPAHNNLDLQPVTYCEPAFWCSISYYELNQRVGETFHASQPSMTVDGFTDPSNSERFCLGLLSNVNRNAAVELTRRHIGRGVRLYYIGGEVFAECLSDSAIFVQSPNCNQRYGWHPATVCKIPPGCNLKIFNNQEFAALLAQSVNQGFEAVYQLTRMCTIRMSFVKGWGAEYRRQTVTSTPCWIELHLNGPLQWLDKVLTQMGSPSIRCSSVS
Transforming growth factor beta-1 proprotein/Mothers against decapentaplegic homolog 3, sequence (P04202 279-390 limits assumed): as the sequence (P04202 279-390 limits assumed) above
Transforming growth factor beta-1 proprotein/Mothers against decapentaplegic homolog 3, sequence (Q8BUN5 2-425 limits assumed): as the sequence (Q8BUN5 2-425 partner limits assumed) above

Question: Which Activity [1] does the source give for `C=C[C@]1(C)C[C@@H](O)[C@]2(C)[C@H](C)CC[C@]3(C/C(=C\c4ccc(C(=O)NC5CCCCC5)cc4)C(=O)[C@H]32)[C@@H](C)[C@@H]1O` here?
Answer: 58.4%

Question: What about the MIC [2] of the same compound?
Answer: > 1000 µg/mL

Question: What about the MIC [3] of the same compound?
Answer: > 1000 µg/mL

Question: And the MIC [4]?
Answer: > 1000 µg/mL

Question: And the pIC50 [5]?
Answer: 3.80

Question: What about the pIC50 [6] of the same compound?
Answer: 4.22

Question: And the Cmax [7]?
Answer: 2270 ng/mL

Question: What about the AUC(0-t) at 12 h [8] of the same compound?
Answer: 2900 ng·h/mL

Question: What about the Tmax [9] of the same compound?
Answer: 39.6 s

Question: What about the half-life [10] of the same compound?
Answer: 0.488 h

Question: And the clearance [11]?
Answer: 27.1 mL/min

Question: And the Cmax [12]?
Answer: 2160 ng/mL

Question: And the AUC(0-t) at 18 h [13]?
Answer: 17800 ng·h/mL

Question: What about the Tmax [14] of the same compound?
Answer: 3.33 h

Question: And the half-life [15]?
Answer: 9.21 h

Question: And the CL/F [16]?
Answer: 7.62 mL/min

Question: And the bioavailability [17]?
Answer: 61.2%

Question: What about the Activity [18] of the same compound?
Answer: Non-Toxic

Question: And the Activity [19]?
Answer: Non-Toxic

Question: And the Activity [20]?
Answer: Non-Toxic

Question: What about the Activity [21] of the same compound?
Answer: Non-Toxic

Question: And the Activity [22]?
Answer: Active

Question: And the Activity [23]?
Answer: 76.47%

Question: And the Activity [24]?
Answer: 38.85%

Question: What about the Activity [25] of the same compound?
Answer: 51.03%

Question: What about the Activity [26] of the same compound?
Answer: Active

Question: What about the Activity [27] of the same compound?
Answer: Active

Question: What about the Activity [28] of the same compound?
Answer: Active

Question: And the Activity [29]?
Answer: Active

Question: And the Activity [30]?
Answer: Active

Question: What about the inhibition [31] of the same compound?
Answer: Active

Question: And the inhibition [32]?
Answer: Active

Question: What about the inhibition [33] of the same compound?
Answer: Active

Reference: ChEMBL document CHEMBL5108019, “Discovery of a novel Pleuromutilin derivative as anti-IPF lead compound via high-throughput assay” (Eur J Med Chem, 2022)
